# Experimental data from article PMC8279406 (Journal of Medicinal Chemistry, 2021).
# Key:
# [1] = biological target: T1, human αvβ6 integrin (Homo sapiens, UniProt P06756+P18564); assay: LAP(TGF-β1)-αvβ6 competitive solid-phase ELISA binding assay; settings: immobilized LAP, soluble integrin
# T1 construct: using immobilized ECM protein and soluble integrin; purchased R&D Systems (Biotechne brand) 3817-AV
# Description: (§1) The affinity and selectivity of the integrin peptide ligands were ascertained according to a modified method previously reported by some of us.[33],[47] The binding was determined in a competitive solid-phase binding assay using extracellular matrix proteins, soluble integrins, and pertinent integrin-specific antibodies in an enzyme-linked immunosorbent assay (ELISA).
# A flat-bottom 96-well ELISA plate was coated overnight at 4 °C with 100 μL/well of 0.4 μg/mL LAP previously diluted in carbonate buffer (15 mM Na2CO3, 35 mM NaHCO3, pH 9.6). Afterward, each well was then washed three times with 200 μL of PBS-T buffer (137 mM NaCl, 2.7 mM KCl, 10 mM Na2HPO4, 2 mM KH2PO4, 0.01% Tween 20, pH 7.4) and blocked for 1 h at room temperature with 150 μL/well TSB buffer (20 mM Tris–HCl, 150 mM NaCl, 1 mM CaCl2, 1 mM MgCl2, 1 mM MnCl2, pH 7.5, 1% BSA). Then, each well was washed three times with 200 μL of PBS-T.
# Equal volumes (50 μL) of the internal standard (or test compounds) were mixed with 0.5 μg/mL human integrin αvβ6 (50 μL) giving a final dilution series in TSB buffer of 0.00064–10 μM for the inhibitors and 0.25 μg/mL for integrin αvβ6. These solutions (100 μL/well) were added to the flat-bottom ELISA plate and incubated for 1 h at room temperature. The solutions were discarded from the wells, and the plate was washed three times with PBS-T buffer (3 × 200 μL). […] The solutions were discarded from the wells, and the plate was washed three times with PBS-T (3 × 200 μL). The binding assay was developed by adding 50 μL/well of the 3,3′,5,5′-tetramethylbenzidine (TMB) liquid substrate system and incubating for 1 min at room temperature. The reaction was stopped by adding 50 μL/well of 3 M H2SO4. The peroxidase product formation was detected by measuring the absorbance at […] using a plate reader (Tecan SpectraFLUOR plus, Männedorf, Switzerland). Each compound concentration was tested in duplicate, and the resulting inhibition curves were analyzed using OriginPro 7.5G software; the inflection point describes the IC50 value. Each plate contained a linear peptide ([…]) as the internal standard.[63]
# [2] = biological target: T2, human αvβ3-integrin (Homo sapiens, UniProt P05106+P06756); assay: Vitronectin-αvβ3 competitive solid-phase ELISA binding assay
# T2 construct: purchased R&D Systems (Biotechne brand) 3050-AV
# Description: as §1
# The experimental procedure was as described for the αvβ6 assay, except for the following modifications. The plates were coated with 100 μL/well of 1.0 μg/mL vitronectin in carbonate buffer, washed, and blocked as described above. […] As a primary antibody, 100 μL/well of 2.0 μg/mL primary antibody (mouse antihuman CD51/61) was used. The secondary antibody used was the same as that used for the integrin αvβ6 assay. Visualization and analysis were performed as described above.
# [3] = biological target: T3, human α5β1 integrin (Homo sapiens, UniProt P05556+P08648); assay: Fibronectin-α5β1 competitive solid-phase ELISA binding assay; settings: immobilized fibronectin, soluble integrin
# T3 construct: purchased R&D Systems (Biotechne brand) 3230-A5
# Description: as §1
# The experimental procedure was as described for the αvβ6 assay, except for the following modifications. […] Visualization and analysis were performed as described above.
# [4] = test system: T4, integrin β8; assay: Integrin internalization assay, surface integrin β8 by flow cytometry; type: cell-based, human; settings: J cells with nectin1, αvβ6 and αvβ8, 700 μM, 1 h at 37 °C
# T4 construct: expressed in transfected cells; host or cells: J cells (derivatives of BHK-TK2 hamster cells)
# Source text: Therefore, another mechanism might be responsible for the activity of 6 on J cells expressing αvβ8 integrin alone as well as the higher activity of 6 than that of 1 in cells that express both αvβ6 and αvβ8.[38] Thus, we hypothesized that 6 can prevent HSV-1 entry into J cells expressing nectin1 and the αvβ8 integrin alone by inducing internalization of the integrin itself. To validate our hypothesis, J cells were transfected with nectin1 and the two integrins αvβ6 and αvβ8 in the above-described manner. Then, 48 h after transfection, the cells were incubated for 60 min at 37 °C with 1 or 6. The surface expression of integrin β6 and β8, in the presence or the absence of peptides, was then evaluated by flow cytometry using FAB4155A (mAbβ6) and FAB4775A (mAbβ8) monoclonal antibodies that recognize other integrin regions than the RGD-binding domain.
# Figure 5 Integrin internalization assay. J cells were transfected with a low amount (75 ng of DNA/24 well) of nectin1 plus αvβ6 integrin (300 ng of DNA/24 well) and αvβ8 integrin (300 ng of DNA/24 well). Then, 48 h after transfection, the cells were exposed to 700 μM peptides for 1 h at 37 °C. […] Integrin and nectin1 surface expression levels were quantified as flow cytometry expression of the APC mean fluorescence intensity (MFI) of gated cells. […]
smiles,measurement,setting,value
"CN1C(=O)[C@H](C2CCCCC2)NC(=O)[C@H](CC(=O)O)NC(=O)CNC(=O)[C@H](CCCNC(=N)N)NC(=O)CC[C@H]1C(N)=O [compound 6, [Arg-Gly-Asp-Chg-(NMe)Glu]-CONH2]",IC50,[1],1.6 ± 0.1 nM
same,binding affinity for αvβ3 (in words),[2],no significant binding affinity
same,IC50,"[2]; competitive ELISA, immobilized vitronectin, soluble integrin",1200 ± 121 nM
same,IC50,[3],112 ± 26 nM
same,integrin β8 surface level (in words),[4],reduced
